Where two headings read alike, the source gives them in different places.
Assay: Pharmacokinetics in CD-1 mice (plasma concentrations, PK parameters)
Type: in vivo
Conditions: CD-1, mouse, plasma; for concentration at 5 min / concentration at 0.5 h / concentration at 1 h / concentration at 2 h / concentration at 4 h / concentration at 24 h: read-out: Concentration; for AUC(0-inf): read-out: AUCInf; for AUC(0-t): read-out: AUClast; for C0: read-out: C0; for MRT inf: read-out: MRTInf_obs; for Cmax: read-out: Cmax; for Tmax: read-out: Tmax
Experimental: Pharmacokinetics for I-127, I-172 and I-210 were determined in Sprague Dawley rats or CD-1 mice by dosing intravenous (IV), subcutaneous (SC) or per oral (PO) using facility SOPs and sampling plasma at required time points. Species, formulation, route of administration and time points samples are listed below for each compound.
Compounds were extracted from plasma, injected on reverse phase HPLC, eluted with a gradient from 5% to 95% acetonitrile in water and quantified by mass spectrometry with internal standard. Data are expressed in ng compound per mL of plasma.

[1] = iv, 2 mg/kg, mouse (CD1) iv 2 mg/kg, Mean
[2] = iv, 2 mg/kg, mouse (CD1) iv 2 mg/kg, individual Mouse 1-3
[3] = po, 30 mg/kg, mouse (CD1) po 30 mg/kg, Mean
[4] = po, 30 mg/kg, mouse (CD1) po 30 mg/kg, individual Mouse 4-6
[5] = sc, 30 mg/kg, mouse (CD1) sc 30 mg/kg, Mean
[6] = sc, 30 mg/kg, mouse (CD1) sc 30 mg/kg, individual Mouse 7-9

concentration at 5 min [1]: 589 ng/mL
concentration at 5 min [2]: 579 ng/mL
concentration at 0.25 h [1]: 390 ng/mL
concentration at 0.25 h [2]: 364 ng/mL
concentration at 0.5 h [1]: 283 ng/mL
concentration at 0.5 h [2]: 306 ng/mL
concentration at 1 h [1]: 193 ng/mL
concentration at 1 h [2]: 220 ng/mL
concentration at 2 h [1]: 90.8 ng/mL
concentration at 2 h [2]: 89.3 ng/mL
concentration at 4 h [1]: 26.1 ng/mL
concentration at 4 h [2]: 32.5 ng/mL
concentration at 8 h [1]: 5.19 ng/mL
concentration at 8 h [2]: 5.72 ng/mL
half-life [1]: 1.49 h
AUC(0-inf) [1]: 672 ng·h/mL
AUC(0-t) [1]: 661 ng·h/mL
C0 [1]: 726 ng/mL
MRT inf [1]: 1.5 h
half-life [2]: 1.52 h
AUC(0-inf) [2]: 714 ng·h/mL
AUC(0-t) [2]: 701 ng·h/mL
C0 [2]: 730 ng/mL
MRT inf [2]: 1.58 h
concentration at 0.25 h [3]: 30.8 ng/mL
concentration at 0.5 h [3]: 55 ng/mL
concentration at 1 h [3]: 72 ng/mL
concentration at 2 h [3]: 127 ng/mL
concentration at 2 h [4]: 177 ng/mL
concentration at 4 h [3]: 120 ng/mL
concentration at 4 h [4]: 92.5 ng/mL
concentration at 8 h [3]: 22.8 ng/mL
half-life [3]: 2.27 h
AUC(0-inf) [3]: 753 ng·h/mL
AUC(0-t) [3]: 676 ng·h/mL
Cmax [3]: 148 ng/mL
MRT inf [3]: 4.14 h
Tmax [3]: 3.33 h
half-life [4]: 2.59 h
AUC(0-inf) [4]: 917 ng·h/mL
AUC(0-t) [4]: 786 ng·h/mL
Cmax [4]: 177 ng/mL
MRT inf [4]: 4.22 h
Tmax [4]: 2 h
concentration at 0.25 h [5]: 79.3 ng/mL
concentration at 0.25 h [6]: 74.8 ng/mL
concentration at 0.5 h [5]: 85 ng/mL
concentration at 0.5 h [6]: 88.8 ng/mL
concentration at 1 h [5]: 97 ng/mL
concentration at 1 h [6]: 107 ng/mL
concentration at 2 h [5]: 95 ng/mL
concentration at 2 h [6]: 90 ng/mL
concentration at 4 h [5]: 98 ng/mL
concentration at 4 h [6]: 95.9 ng/mL
concentration at 8 h [5]: 43.5 ng/mL
concentration at 8 h [6]: 39.6 ng/mL
concentration at 24 h [5]: 2.85 ng/mL
concentration at 24 h [6]: 3.62 ng/mL
half-life [5]: 3.96 h
AUC(0-inf) [5]: 1040 ng·h/mL
AUC(0-t) [5]: 1020 ng·h/mL
Cmax [5]: 109 ng/mL
MRT inf [5]: 5.87 h
Compound: O=C1CCC(N2C(=O)c3cccc(NCCOCCOCCNCc4ccc(-n5cc(NC(=O)c6coc(-c7ccnc(NCC8CC8)c7)n6)c(C(F)F)n5)cc4)c3C2=O)C(=O)N1 (stereo not drawn) [I-210, 2-[2-(Cyclopropylmethylamino)-4-pyridyl]-N-[3-(difluoromethyl)-1-[4-[[2-[2-[2-[[2-(2,6-dioxo-3-piperidyl)-1,3-dioxoisoindolin-4-yl]amino]ethoxy]ethoxy]ethylamino]methyl]phenyl]pyrazol-4-yl]oxazole-4-carboxamide]

— patent publication US10874743B2, “IRAK degraders and uses thereof” (Kymera Therapeutics, Inc., priority 2017, dated 2020)
